{"source": "ChEMBL document CHEMBL3046147", "about": "“Synthesis and Herbicidal Activity of 1-Arylalkyl-3-pyrrolin-2-one Derivatives” (J Pestic Sci, 2000)", "key": {"[1]": {"system": "Echinochloa oryzicola", "experiment": "Herbicidal activity against Echinochloa oryzicola under greenhouse condition assessed as growth inhibition at 125 g /ha measured after 20 days", "type": "functional, organism-based"}, "[2]": {"system": "Echinochloa oryzicola", "experiment": "Herbicidal activity against Echinochloa oryzicola at 250 g /ha treated at 1.5 to 2-leaf stage measured after 26 days by outdoor concrete pot test", "type": "functional, organism-based"}, "[3]": {"system": "Echinochloa oryzicola", "experiment": "Herbicidal activity against Echinochloa oryzicola under greenhouse condition assessed as growth inhibition at 500 g /ha measured after 27 days", "type": "functional, organism-based"}, "[4]": {"system": "Elatine triandra", "experiment": "Herbicidal activity against Elatine triandra at 500 g /ha treated at 1 to 2-pairs of leaf stage measured after 26 days by outdoor concrete pot test", "type": "functional, organism-based"}, "[5]": {"system": "Echinochloa oryzicola", "experiment": "Herbicidal activity against Echinochloa oryzicola under greenhouse condition assessed as growth inhibition at 1000 g /ha measured after 33 days", "type": "functional, organism-based"}, "[6]": {"system": "Elatine triandra", "experiment": "Herbicidal activity against Elatine triandra at 1000 g /ha treated at 1 to 2-pairs of leaf stage measured after 26 days by outdoor concrete pot test", "type": "functional, organism-based"}, "[7]": {"system": "Sagittaria pygmaea", "experiment": "Herbicidal activity against Sagittaria pygmaea at 1000 g /ha treated at 0.5 to 1-leaf stage measured after 26 days by outdoor concrete pot test", "type": "functional, organism-based"}, "[8]": {"system": "Echinochloa oryzicola", "experiment": "Herbicidal activity against Echinochloa oryzicola grown in water-drained pot under greenhouse condition assessed as growth inhibition at 125 g /ha measured after 6 days", "type": "functional, organism-based"}, "[9]": {"system": "Echinochloa oryzicola", "experiment": "Herbicidal activity against Echinochloa oryzicola at 500 g /ha treated at 1.5 to 2-leaf stage measured after 26 days by outdoor concrete pot test", "type": "functional, organism-based"}, "[10]": {"system": "Echinochloa oryzicola", "experiment": "Herbicidal activity against Echinochloa oryzicola under greenhouse condition assessed as growth inhibition at 125 g /ha measured after 13 days", "type": "functional, organism-based"}, "[11]": {"system": "Echinochloa oryzicola", "experiment": "Herbicidal activity against Echinochloa oryzicola grown in water-drained pot under greenhouse condition assessed as time duration of residual effect at 500 g /ha", "type": "functional"}, "[12]": {"system": "Echinochloa oryzicola", "experiment": "Herbicidal activity against Echinochloa oryzicola under greenhouse condition assessed as growth inhibition at 125 g /ha measured after 27 days", "type": "functional, organism-based"}, "[13]": {"system": "Echinochloa oryzicola", "experiment": "Herbicidal activity against Echinochloa oryzicola under greenhouse condition assessed as growth inhibition at 500 g /ha measured after 20 days", "type": "functional, organism-based"}, "[14]": {"system": "Echinochloa oryzicola", "experiment": "Herbicidal activity against Echinochloa oryzicola under greenhouse condition assessed as growth inhibition at 250 g /ha measured after 33 days", "type": "functional, organism-based"}, "[15]": {"system": "Sagittaria pygmaea", "experiment": "Herbicide activity against Sagittaria pygmaea under greenhouse condition compound treated at 0.5 leaf-stage measured after 14 to 20 days", "type": "functional"}, "[16]": {"system": "Echinochloa oryzicola", "experiment": "Herbicidal activity against Echinochloa oryzicola under greenhouse condition assessed as growth inhibition at 125 g /ha measured after 6 days", "type": "functional, organism-based"}, "[17]": {"system": "Echinochloa oryzicola", "experiment": "Herbicidal activity against Echinochloa oryzicola grown in water-drained pot under greenhouse condition assessed as time duration of residual effect at 125 g /ha", "type": "functional"}, "[18]": {"system": "Echinochloa oryzicola", "experiment": "Herbicidal activity against Echinochloa oryzicola grown in water-drained pot under greenhouse condition assessed as growth inhibition at 500 g /ha measured after 13 days", "type": "functional, organism-based"}, "[19]": {"system": "Schoenoplectiella juncoides", "experiment": "Herbicide activity against Schoenoplectiella juncoides under greenhouse condition compound treated at emergence-stage measured after 14 to 20 days", "type": "functional"}, "[20]": {"system": "Echinochloa oryzicola", "experiment": "Herbicidal activity against Echinochloa oryzicola under greenhouse condition assessed as growth inhibition at 125 g /ha measured after 42 days", "type": "functional, organism-based"}, "[21]": {"system": "Echinochloa oryzicola", "experiment": "Herbicidal activity against Echinochloa oryzicola under greenhouse condition assessed as growth inhibition at 125 g /ha measured after 33 days", "type": "functional, organism-based"}, "[22]": {"system": "Echinochloa oryzicola", "experiment": "Herbicidal activity against Echinochloa oryzicola grown in water-drained pot under greenhouse condition assessed as growth inhibition at 500 g /ha measured after 33 days", "type": "functional, organism-based"}, "[23]": {"system": "Echinochloa oryzicola", "experiment": "Herbicidal activity against Echinochloa oryzicola grown in water-drained pot under greenhouse condition assessed as growth inhibition at 125 g /ha measured after 13 days", "type": "functional, organism-based"}, "[24]": {"system": "Schoenoplectiella juncoides", "experiment": "Herbicidal activity against Schoenoplectiella juncoides at 250 g /ha treated at 1.5 to 2.1-leaf stage measured after 26 days by outdoor concrete pot test", "type": "functional, organism-based"}, "[25]": {"system": "Cyperus serotinus", "experiment": "Herbicidal activity against Cyperus serotinus at 250 g /ha treated at 1 to 1.5-leaf stage measured after 26 days by outdoor concrete pot test", "type": "functional, organism-based"}, "[26]": {"system": "Echinochloa oryzicola", "experiment": "Herbicidal activity against Echinochloa oryzicola under greenhouse condition assessed as time duration of residual effect at 500 g /ha", "type": "functional"}, "[27]": {"system": "Rotala indica", "experiment": "Herbicidal activity against Rotala indica at 1000 g /ha treated at 1 to 2-pairs of leaf stage measured after 26 days by outdoor concrete pot test", "type": "functional, organism-based"}, "[28]": {"system": "Echinochloa oryzicola", "experiment": "Pre-emergence herbicide activity against Echinochloa oryzicola under greenhouse condition measured after 14 to 20 days", "type": "functional"}, "[29]": {"system": "Echinochloa oryzicola", "experiment": "Herbicidal activity against Echinochloa oryzicola grown in water-drained pot under greenhouse condition assessed as growth inhibition at 500 g /ha measured after 27 days", "type": "functional, organism-based"}, "[30]": {"system": "Echinochloa oryzicola", "experiment": "Herbicidal activity against Echinochloa oryzicola under greenhouse condition assessed as growth inhibition at 1000 g /ha measured after 27 days", "type": "functional, organism-based"}, "[31]": {"system": "Echinochloa oryzicola", "experiment": "Herbicidal activity against Echinochloa oryzicola under greenhouse condition assessed as growth inhibition at 1000 g /ha measured after 42 days", "type": "functional, organism-based"}, "[32]": {"system": "Lindernia procumbens", "experiment": "Herbicidal activity against Lindernia procumbens at 500 g /ha treated at 1 to 2-pairs of leaf stage measured after 26 days by outdoor concrete pot test", "type": "functional, organism-based"}, "[33]": {"system": "Sagittaria pygmaea", "experiment": "Herbicidal activity against Sagittaria pygmaea at 500 g /ha treated at 0.5 to 1-leaf stage measured after 26 days by outdoor concrete pot test", "type": "functional, organism-based"}, "[34]": {"system": "Echinochloa oryzicola", "experiment": "Herbicidal activity against Echinochloa oryzicola under greenhouse condition assessed as growth inhibition at 250 g /ha measured after 42 days", "type": "functional, organism-based"}, "[35]": {"system": "Echinochloa oryzicola", "experiment": "Herbicidal activity against Echinochloa oryzicola under greenhouse condition assessed as growth inhibition at 500 g /ha measured after 6 days", "type": "functional, organism-based"}, "[36]": {"system": "Oryza sativa", "experiment": "Phytotoxicity against two-leaf stage Oryza sativa cv. Nihonbare (rice) planted 3 cm depth measured after […]", "type": "organism-based", "details": "in vivo"}, "[37]": {"system": "Pontederia vaginalis", "experiment": "Herbicidal activity against Monochoria vaginalis at 1000 g /ha treated at 1.5 to 2-leaf stage measured after 26 days by outdoor concrete pot test", "type": "functional, organism-based"}, "[38]": {"system": "Sagittaria pygmaea", "experiment": "Herbicidal activity against Sagittaria pygmaea at 250 g /ha treated at 0.5 to 1-leaf stage measured after 26 days by outdoor concrete pot test", "type": "functional, organism-based"}, "[39]": {"system": "Rotala indica", "experiment": "Herbicidal activity against Rotala indica at 250 g /ha treated at 1 to 2-pairs of leaf stage measured after 26 days by outdoor concrete pot test", "type": "functional, organism-based"}, "[40]": {"system": "Echinochloa oryzicola", "experiment": "Herbicidal activity against Echinochloa oryzicola grown in water-drained pot under greenhouse condition assessed as growth inhibition at 500 g /ha measured after 6 days", "type": "functional, organism-based"}, "[41]": {"system": "Schoenoplectiella juncoides", "experiment": "Herbicidal activity against Schoenoplectiella juncoides at 1000 g /ha treated at 1.5 to 2.1-leaf stage measured after 26 days by outdoor concrete pot test", "type": "functional, organism-based"}, "[42]": {"system": "Pontederia vaginalis", "experiment": "Herbicidal activity against Monochoria vaginalis at 500 g /ha treated at 1.5 to 2-leaf stage measured after 26 days by outdoor concrete pot test", "type": "functional, organism-based"}, "[43]": {"system": "Echinochloa oryzicola", "experiment": "Herbicide activity against Echinochloa oryzicola under greenhouse condition compound treated at 2 leaf-stage measured after 14 to 20 days", "type": "functional"}, "[44]": {"system": "Echinochloa oryzicola", "experiment": "Herbicidal activity against Echinochloa oryzicola under greenhouse condition assessed as growth inhibition at 250 g /ha measured after 6 days", "type": "functional, organism-based"}, "[45]": {"system": "Echinochloa oryzicola", "experiment": "Herbicidal activity against Echinochloa oryzicola under greenhouse condition assessed as growth inhibition at 500 g /ha measured after 33 days", "type": "functional, organism-based"}, "[46]": {"system": "Echinochloa oryzicola", "experiment": "Herbicidal activity against Echinochloa oryzicola grown in water-drained pot under greenhouse condition assessed as growth inhibition at 125 g /ha measured after 42 days", "type": "functional, organism-based"}}, "note": "Active and inactive are the calls of the source. The rule behind the calls is not given here.", "data": [{"smiles": "CC1=C(c2ccccc2)C(=O)N(C(C)(C)c2nc3ccccc3s2)C1", "values": [{"measurement": "growth inhibition (GI)", "setting": "[1]", "result": "Active"}, {"measurement": "growth inhibition (GI)", "setting": "[2]", "result": "Active"}, {"measurement": "growth inhibition (GI)", "setting": "[3]", "result": "Active"}, {"measurement": "growth inhibition (GI)", "setting": "[4]", "result": "Active"}, {"measurement": "growth inhibition (GI)", "setting": "[5]", "result": "Active"}, {"measurement": "growth inhibition (GI)", "setting": "[6]", "result": "Active"}, {"measurement": "growth inhibition (GI)", "setting": "[7]", "result": "Active"}, {"measurement": "growth inhibition (GI)", "setting": "[8]", "result": "Active"}, {"measurement": "growth inhibition (GI)", "setting": "[9]", "result": "Active"}, {"measurement": "growth inhibition (GI)", "setting": "[10]", "result": "Active"}, {"measurement": "Time", "setting": "[11]", "result": ">42", "unit": "days"}, {"measurement": "growth inhibition (GI)", "setting": "[12]", "result": "Active"}, {"measurement": "growth inhibition (GI)", "setting": "[13]", "result": "Active"}, {"measurement": "growth inhibition (GI)", "setting": "[14]", "result": "inactive"}, {"measurement": "MED", "setting": "[15]", "result": 20, "unit": "g/acre"}, {"measurement": "growth inhibition (GI)", "setting": "[16]", "result": "Active"}, {"measurement": "Time", "setting": "[17]", "result": 27, "unit": "days"}, {"measurement": "growth inhibition (GI)", "setting": "[18]", "result": "Active"}, {"measurement": "MED", "setting": "[19]", "result": 20, "unit": "g/acre"}, {"measurement": "growth inhibition (GI)", "setting": "[20]", "result": "Active"}, {"measurement": "growth inhibition (GI)", "setting": "[21]", "result": "Active"}, {"measurement": "growth inhibition (GI)", "setting": "[22]", "result": "Active"}, {"measurement": "growth inhibition (GI)", "setting": "[23]", "result": "Active"}, {"measurement": "growth inhibition (GI)", "setting": "[24]", "result": "inactive"}, {"measurement": "growth inhibition (GI)", "setting": "[25]", "result": "Active"}, {"measurement": "Time", "setting": "[26]", "result": ">42", "unit": "days"}, {"measurement": "growth inhibition (GI)", "setting": "[27]", "result": "Active"}, {"measurement": "MED", "setting": "[28]", "result": 0.313, "unit": "g/acre"}, {"measurement": "growth inhibition (GI)", "setting": "[29]", "result": "Active"}, {"measurement": "growth inhibition (GI)", "setting": "[30]", "result": "Active"}, {"measurement": "growth inhibition (GI)", "setting": "[31]", "result": "Active"}, {"measurement": "growth inhibition (GI)", "setting": "[32]", "result": "Active"}, {"measurement": "growth inhibition (GI)", "setting": "[33]", "result": "Active"}, {"measurement": "growth inhibition (GI)", "setting": "[34]", "result": "inactive"}, {"measurement": "growth inhibition (GI)", "setting": "[35]", "result": "Active"}, {"measurement": "MTD", "setting": "[36]", "result": 10, "unit": "g/acre"}, {"measurement": "growth inhibition (GI)", "setting": "[37]", "result": "Active"}, {"measurement": "growth inhibition (GI)", "setting": "[38]", "result": "inactive"}, {"measurement": "growth inhibition (GI)", "setting": "[39]", "result": "Active"}, {"measurement": "growth inhibition (GI)", "setting": "[40]", "result": "Active"}, {"measurement": "growth inhibition (GI)", "setting": "[41]", "result": "inactive"}, {"measurement": "growth inhibition (GI)", "setting": "[42]", "result": "Active"}, {"measurement": "MED", "setting": "[43]", "result": 1.25, "unit": "g/acre"}, {"measurement": "growth inhibition (GI)", "setting": "[44]", "result": "Active"}, {"measurement": "growth inhibition (GI)", "setting": "[45]", "result": "Active"}, {"measurement": "growth inhibition (GI)", "setting": "[46]", "result": "inactive"}]}]}
